Each structure is given as a SMILES string.

The assay deals with TNBC cell line MDA-MB-231. Kind of assay: CCK-8 assay, antiproliferative activity against MDA-MB-231. Conditions: Homo sapiens, MDA-MB-231, 72 h, read-out: IC50 MDA-MB-231.
As a reminder, the IC50 is the point on the concentration scale where inhibition reaches its midpoint. `Cc1ccc2occ(CO)c(=O)c2c1` [Compound 15]: the IC50 is more than 20 µM. Regarding `COC(=O)[C@H](Cc1ccc(N(CCCl)CCCl)cc1)NC(=O)CCC(=O)NCc1coc2ccc(OC)cc2c1=O` [Compound 22d, Methyl (S)-3-(4-(bis(2-chloroethyl)amino)phenyl)-2-(4-(((6-methoxy-4-oxo-4H-chromen-3-yl)methyl)amino)-4-oxobutanamido)propanoate], the half-inhibitory concentration (IC50) worked out at 3.05 ± 0.14 µM. As for `COC(=O)[C@H](Cc1ccc(N(CCCl)CCCl)cc1)NC(=O)CCC(=O)O` [Compound 9, reference compound], the IC50 is more than 20 µM. As to `COC(=O)[C@H](Cc1ccc(N(CCCl)CCCl)cc1)NC(=O)CCCC(=O)OCc1coc2ccc(OC)cc2c1=O` [Compound 18e, (6-Methoxy-4-oxo-4H-chromen-3-yl)methyl (S)-5-((3-(4-(bis(2-chloroethyl)amino)phenyl)-1-methoxy-1-oxopropan-2-yl)amino)-5-oxopentanoate], the IC50 is 8.98 ± 0.26 µM. Take `COc1ccc2occ(CNC(=O)[C@H](Cc3ccc(N(CCCl)CCCl)cc3)NC=O)c(=O)c2c1` [Compound 22b, (S)-3-(4-(bis(2-chloroethyl)amino)phenyl)-2-formamido-N-((6-methoxy-4-oxo-4H-chromen-3-yl)methyl)propanamide]: the IC50 came out at 4.65 ± 0.22 µM. The same measure for `COC(=O)[C@H](Cc1ccc(N(CCCl)CCCl)cc1)NC(=O)CCCC(=O)OCc1coc2ccc(C)cc2c1=O` [Compound 17e, (6-Methyl-4-oxo-4H-chromen-3-yl)methyl (S)-5-((3-(4-(bis(2-chloroethyl)amino)phenyl)-1-methoxy-1-oxopropan-2-yl)amino)-5-oxopentanoate]: 8.32 ± 0.34 µM; for `Cc1ccc2occ(CN)c(=O)c2c1` [Compound 19]: more than 20 µM. In the case of `COC(=O)[C@H](Cc1ccc(N(CCCl)CCCl)cc1)NC(=O)CCCC(=O)O` [Compound 10, reference compound], the IC50 was more than 20 µM. In the case of `COc1ccc2occ(COC(=O)c3ccc(N(CCCl)CCCl)cc3)c(=O)c2c1` [Compound 18a, (6-Methoxy-4-oxo-4H-chromen-3-yl)methyl 4-(bis(2-chloroethyl)amino)benzoate], the IC50 stood at 9.47 ± 0.38 µM.

As for `COC(=O)[C@H](Cc1ccc(N(CCCl)CCCl)cc1)NC(=O)CCC(=O)NCc1coc2ccc(C)cc2c1=O` [Compound 21d, Methyl (S)-3-(4-(bis(2-chloroethyl)amino)phenyl)-2-(4-(((6-methyl-4-oxo-4H-chromen-3-yl)methyl)amino)-4-oxobutanamido)propanoate], the IC50 worked out at 6.87 ± 0.19 µM. Regarding `COc1ccc2occ(CO)c(=O)c2c1` [Compound 16], the IC50 was more than 20 µM. For `Cc1ccc2occ(CNC(=O)c3ccc(N(CCCl)CCCl)cc3)c(=O)c2c1` [Compound 21a, 4-(Bis(2-chloroethyl)amino)-N-((6-methyl-4-oxo-4H-chromen-3-yl)methyl)benzamide], the IC50 was 14.9 ± 1.06 µM.

In the case of `COc1cccc2c1C(=O)c1c(O)c3c(c(O)c1C2=O)C[C@@](O)(C(=O)CO)C[C@@H]3O[C@H]1C[C@H](N)[C@H](O)[C@H](C)O1` [Adriamycin, reference compound], the IC50 was 2.94 ± 0.12 µM. Next, `O=CN[C@@H](Cc1ccc(N(CCCl)CCCl)cc1)C(=O)O` [Compound 6, formylmerphalan, reference compound]: more than 20 µM; `Cc1ccc2occ(COC(=O)[C@H](Cc3ccc(N(CCCl)CCCl)cc3)NC=O)c(=O)c2c1` [Compound 17b, (6-Methyl-4-oxo-4H-chromen-3-yl)methyl (S)-3–(4-(bis(2-chloroethyl)amino)phenyl)-2-formamidopropanoate]: 13.2 ± 1.12 µM.

Take `COc1ccc2occ(CNC(=O)c3ccc(N(CCCl)CCCl)cc3)c(=O)c2c1` [Compound 22a, 4-(Bis(2-chloroethyl)amino)-N-((6-methoxy-4-oxo-4H-chromen-3-yl)methyl)benzamide]: the IC50 amounted to 10.6 ± 0.58 µM. The same measure for `CC(C)(C)OC(=O)N[C@@H](Cc1ccc(N(CCCl)CCCl)cc1)C(=O)O` [Compound 7, Boc-protected melphalan, reference compound]: more than 20 µM; for `N[C@@H](Cc1ccc(N(CCCl)CCCl)cc1)C(=O)O` [Compound 5, melphalan, reference compound]: more than 20 µM; for `Cc1ccc2occ(COC(=O)[C@H](Cc3ccc(N(CCCl)CCCl)cc3)NC(=O)OC(C)(C)C)c(=O)c2c1` [Compound 17c, (6-Methyl-4-oxo-4H-chromen-3-yl)methyl (S)-3-(4-(bis(2-chloroethyl)amino)phenyl)-2-((tert-butoxycarbonyl)amino)propanoate]: more than 20 µM.

In the case of `COC(=O)[C@H](Cc1ccc(N(CCCl)CCCl)cc1)NC(=O)CCC(=O)OCc1coc2ccc(OC)cc2c1=O` [Compound 18d, (6-Methoxy-4-oxo-4H-chromen-3-yl)methyl (S)-4-((3-(4-(bis(2-chloroethyl)amino)phenyl)-1-methoxy-1-oxopropan-2-yl)amino)-4-oxobutanoate], the IC50 is 12.8 ± 0.32 µM.

For the compound `COC(=O)[C@H](Cc1ccc(N(CCCl)CCCl)cc1)NC(=O)CCCC(=O)NCc1coc2ccc(C)cc2c1=O` [Compound 21e, Methyl (S)-3-(4-(bis(2-chloroethyl)amino)phenyl)-2–(5-(((6-methyl-4-oxo-4H-chromen-3-yl)methyl)amino)-5-oxopentanamido)propanoate], the IC50 was 4.47 ± 0.15 µM. Next, `Cc1ccc2occ(CNC(=O)[C@H](Cc3ccc(N(CCCl)CCCl)cc3)NC(=O)OC(C)(C)C)c(=O)c2c1` [Compound 21c, Tert-butyl (S)-(3-(4-(bis(2-chloroethyl)amino)phenyl)-1-(((6-methyl-4-oxo-4H-chromen-3-yl)methyl)amino)-1-oxopropan-2-yl)carbamate]: 12.7 ± 0.48 µM; `COc1ccc2occ(COC(=O)[C@H](Cc3ccc(N(CCCl)CCCl)cc3)NC=O)c(=O)c2c1` [Compound 18b, (6-Methoxy-4-oxo-4H-chromen-3-yl)methyl (S)-3-(4-(bis(2-chloroethyl)amino)phenyl)-2-formamidopropanoate]: 11.5 ± 0.35 µM; `Cc1ccc2occ(COC(=O)c3ccc(N(CCCl)CCCl)cc3)c(=O)c2c1` [Compound 17a, (6-Methyl-4-oxo-4H-chromen-3-yl)methyl 4-(bis(2-chloroethyl)amino)benzoate]: 9.57 ± 0.65 µM. The same measure for `Cc1ccc2occ(CNC(=O)[C@H](Cc3ccc(N(CCCl)CCCl)cc3)NC=O)c(=O)c2c1` [Compound 21b, (S)-3-(4-(bis(2-chloroethyl)amino)phenyl)-2-formamido-N-((6-methyl-4-oxo-4H-chromen-3-yl)methyl)propanamide]: 9.42 ± 0.29 µM; for `COc1ccc2occ(CNC(=O)[C@H](Cc3ccc(N(CCCl)CCCl)cc3)NC(=O)OC(C)(C)C)c(=O)c2c1` [Compound 22c, Tert-butyl (S)-(3-(4-(bis(2-chloroethyl)amino)phenyl)-1-(((6-methoxy-4-oxo-4H-chromen-3-yl)methyl)amino)-1-oxopropan-2-yl)carbamate]: 9.87 ± 0.36 µM. Next, `COc1ccc2occ(CN)c(=O)c2c1` [Compound 20]: more than 20 µM; `COC(=O)[C@H](Cc1ccc(N(CCCl)CCCl)cc1)NC(=O)CCC(=O)OCc1coc2ccc(C)cc2c1=O` [Compound 17d, (6-Methyl-4-oxo-4H-chromen-3-yl)methyl (S)-4-((3-(4-(bis(2-chloroethyl)amino)phenyl)-1-methoxy-1-oxopropan-2-yl)amino)-4-oxobutanoate]: 11.4 ± 0.2 µM.

(Values after PMC8725944, “Design and synthesis of chromone-nitrogen mustard derivatives and evaluation of anti-breast cancer activity” (Journal of Enzyme Inhibition and Medicinal Chemistry, 2021).)
